Test results taken from US4342751A (priority 1981, dated 1982).
Like-named read-outs stand apart in the source and are kept apart here. Numbered stars: 1 amine (or outer) side, 2 acyl side, 3 side chain; on linkers, the order of the positions; unused ones are H or OH. Square brackets hold non-standard residues; d marks the D form. Peptide text beside a SMILES is read from it. X1 = CCC(N[*:1])C(C)C(=O)O[C@H](C(=O)[*:2])[C@@H](C)CC; X2 = C[C@H](N[*:1])C(=O)C(C)(C)C(=O)[*:2]; NMeY = CN[C@@H](Cc1ccc(O)cc1)C(=O)O; NMeI = CC[C@H](C)[C@H](NC)C(=O)O; NMeV = CN[C@H](C(=O)O)C(C)C

What was measured:
Aphanomyces euteiches = experiment: In vitro agar-dilution test; type: cell-based; design: Zone of Growth: unit not given beside the values; settings: for Zone of Growth: control zone 29
Experimental: (§1) In these tests 100× solutions of majusculamide C in 95% aqueous ethanol were used. Majusculamide C solution (0.1 ml) and melted agar (9.9 ml) at 50° C. were mixed. An inoculum plug (6-mm diameter) was placed in the center of each plate; the radial growth of the colony was measured. Zone of growth was measured from the edge of the plug to the edge of the colony.

[1] = system: Pythium ultimum Ridomil-resistant strain; experiment: In vitro agar-dilution test, Ridomil-resistant strain; type: cell-based; settings: for Zone of Growth: control zone 39
Rhizoctonia solani = experiment: In vitro agar-dilution test; type: cell-based; settings: for Percent Inhibition / Zone of Growth: Table 5; for Zone of Growth: control zone 27
Experimental: as §1

Sclerotinia homoeocarpa = experiment: In vitro agar-dilution test; type: cell-based; settings: for Percent Inhibition / Zone of Growth: Table 5; for Zone of Growth: control zone 23
Experimental: as §1

[2] = system: Phytophthora capsici Ridomil-resistant strain; experiment: In vitro agar-dilution test, Ridomil-resistant strain; type: cell-based; settings: for Zone of Growth: control zone 28
Phytophthora infestans [3] = type: cell-based; settings: for Zone of Growth: control zone 12
Phytophthora infestans [4] = type: in vivo; design: key to Disease Control rating, Tomato Late Blight: 1=severe disease; 5=no disease; settings: for Disease Control rating, Tomato Late Blight: 1-5 scale, average of two replicates
[5] = system: Pythium ultimum Ridomil-sensitive strain; experiment: In vitro agar-dilution test, Ridomil-sensitive strain; type: cell-based; settings: for Zone of Growth: control zone 39
Solubility in solvents = type: physicochemical
Pythium aphanidermatum = experiment: In vitro agar-dilution test; type: cell-based; design: Zone of Growth: unit not given here
Experimental: as §1

[6] = system: Phytophthora capsici Ridomil-Sensitive strain; experiment: In vitro agar-dilution test, Ridomil-sensitive strain; type: cell-based; settings: for Zone of Growth: control zone 27
[7] = system: Tomato leaves (C. V. Rutgers); settings: for Phytotoxicity rating, tomato leaves: average of two replicates
[8] = swimmer's itch; Mynderse et al., Science 196, 538-540 (1977); cited from earlier work
[9] = calculated from Table 7 results
[10] = calculated from Table 9 results
[11] = calculated from Table 5 results
[12] = 0.1 ppm, Table 7 experiment, control zone 32
[13] = 1.0 ppm, Table 7 experiment, control zone 32

SMILES: CCC1NC(=O)[C@H](C)NC(=O)C(C)(C)C(=O)[C@H](C)NC(=O)[C@H](Cc2ccc(OC)cc2)N(C)C(=O)[C@H](C(C)C)N(C)C(=O)CNC(=O)[C@H]([C@@H](C)CC)N(C)C(=O)CNC(=O)[C@H]([C@@H](C)CC)OC(=O)C1C (some centres unmarked) [Majusculamide C, majusculamide C] (cyclo(A[X1]G[NMeI]G[NMeV][NMeY](Me)[X2]))
- Percent Inhibition (Aphanomyces euteiches; 0.01 ppm): 7%
- Zone of Growth (Aphanomyces euteiches; 0.01 ppm): 27
- Percent Inhibition (Aphanomyces euteiches; 0.1 ppm): 7%
- Zone of Growth (Aphanomyces euteiches; 0.1 ppm): 27
- Percent Inhibition (Aphanomyces euteiches; 1.0 ppm): 29%
- Zone of Growth (Aphanomyces euteiches; 1.0 ppm): 20.5
- Percent Inhibition (Aphanomyces euteiches; 10.0 ppm): 88%
- Zone of Growth (Aphanomyces euteiches; 10.0 ppm): 3.5
- ED50 (Aphanomyces euteiches; [9]): 2.1 ppm
- Percent Inhibition ([1]; 0.1 ppm): 60%
- Zone of Growth ([1]; 0.1 ppm): 15.5
- Percent Inhibition ([1]; 1 ppm): 91%
- Zone of Growth ([1]; 1 ppm): 3.5
- Growth observation (footnote b) ([1]; 10 ppm): No growth on plug
- Percent Inhibition ([1]; 10 ppm): 100%
- Zone of Growth ([1]; 10 ppm): 0
- ED50 [1, 10]: < 0.5 ppm
- Percent Inhibition (Rhizoctonia solani; 1 ppm): 30%
- Zone of Growth (Rhizoctonia solani; 1 ppm): 19
- Percent Inhibition (Rhizoctonia solani; 10 ppm): 63%
- Zone of Growth (Rhizoctonia solani; 10 ppm): 10
- ED50 (effective dose to achieve 50% inhibition) (Rhizoctonia solani; [11]): 4 ppm
- Control of fungus (Rhizoctonia solani; suitable tests, not specified, Rhizoctonia damping-off): control
- Percent Inhibition (Sclerotinia homoeocarpa; 1 ppm): 26%
- Zone of Growth (Sclerotinia homoeocarpa; 1 ppm): 17
- Percent Inhibition (Sclerotinia homoeocarpa; 10 ppm): 30%
- Zone of Growth (Sclerotinia homoeocarpa; 10 ppm): 16
- ED50 (effective dose to achieve 50% inhibition) (Sclerotinia homoeocarpa; [11]): > 10 ppm
- Percent Inhibition ([2]; 0.1 ppm): 48%
- Zone of Growth ([2]; 0.1 ppm): 14.5
- Percent Inhibition ([2]; 1 ppm): 84%
- Zone of Growth ([2]; 1 ppm): 4.5
- Percent Inhibition ([2]; 10 ppm): 98%
- Zone of Growth ([2]; 10 ppm): 0.5
- ED50 [2, 10]: 0.25 ppm
- Percent Inhibition (Phytophthora infestans [3]; 0.01 ppm): 17%
- Zone of Growth (Phytophthora infestans [3]; 0.01 ppm): 10
- Percent Inhibition (Phytophthora infestans [3]; 0.1 ppm): 42%
- Zone of Growth (Phytophthora infestans [3]; 0.1 ppm): 7
- Percent Inhibition (Phytophthora infestans [3]; 1.0 ppm): 46%
- Zone of Growth (Phytophthora infestans [3]; 1.0 ppm): 6.5
- Percent Inhibition (Phytophthora infestans [3]; 10.0 ppm): 100%
- Zone of Growth (Phytophthora infestans [3]; 10.0 ppm): 0
- ED50 (Phytophthora infestans [3]; [9]): 1.07 ppm
- Disease Control rating, Tomato Late Blight (Phytophthora infestans [4]; 6.25 ppm foliar spray): 5
- Disease Control rating, Tomato Late Blight (Phytophthora infestans [4]; 25 ppm foliar spray): 5
- Disease Control rating, Tomato Late Blight (Phytophthora infestans [4]; 100 ppm foliar spray): 5
- Disease Control rating, Tomato Late Blight (Phytophthora infestans [4]; 400 ppm foliar spray): 5
- Control of fungus (Phytophthora infestans [4]; suitable tests, not specified, tomato late blight): control
- In vivo effectiveness against tomato late blight (Phytophthora infestans [4]; summary statement): effective
- Percent Inhibition ([5]; 0.1 ppm): 53%
- Zone of Growth ([5]; 0.1 ppm): 18.5
- Percent Inhibition ([5]; 1 ppm): 88%
- Zone of Growth ([5]; 1 ppm): 4.5
- Percent Inhibition ([5]; 10 ppm): 100%
- Zone of Growth ([5]; 10 ppm): 0
- ED50 [5, 10]: < 0.1 ppm
- Solubility in organic solvents (Solubility in solvents; methanol, dichloromethane, and acetone): soluble
- Solubility in water (Solubility in solvents; water): not soluble
- Percent Inhibition (Pythium aphanidermatum; 0.01 ppm, Table 7 experiment): 6%
- Zone of Growth (Pythium aphanidermatum; 0.01 ppm, Table 7 experiment, control zone 32): 30
- Percent Inhibition (Pythium aphanidermatum; 0.1 ppm, Table 7 experiment): 62%
- Zone of Growth (Pythium aphanidermatum; [12]): 12
- Percent Inhibition (Pythium aphanidermatum; 1 ppm, Table 5 experiment): 97%
- Zone of Growth (Pythium aphanidermatum; 1 ppm, Table 5 experiment, control zone 28): 1
- Percent Inhibition (Pythium aphanidermatum; 1.0 ppm, Table 7 experiment): 95%
- Zone of Growth (Pythium aphanidermatum; [13]): 1.5
- Percent Inhibition (Pythium aphanidermatum; 10 ppm, Table 5 experiment): 100%
- Zone of Growth (Pythium aphanidermatum; 10 ppm, Table 5 experiment, control zone 28): 0
- Percent Inhibition (Pythium aphanidermatum; 10.0 ppm, Table 7 experiment): 100%
- Zone of Growth (Pythium aphanidermatum; 10.0 ppm, Table 7 experiment, control zone 32): 0
- ED50 (effective dose to achieve 50% inhibition) (Pythium aphanidermatum; [11]): < 1 ppm
- ED50 (Pythium aphanidermatum; [9]): 0.07 ppm
- Percent Inhibition ([6]; 0.1 ppm): 46%
- Zone of Growth ([6]; 0.1 ppm): 14.5
- Percent Inhibition ([6]; 1 ppm): 74%
- Zone of Growth ([6]; 1 ppm): 7
- Percent Inhibition ([6]; 10 ppm): 100%
- Zone of Growth ([6]; 10 ppm): 0
- ED50 [6, 10]: 0.45 ppm
- Phytotoxicity rating, tomato leaves ([7]; 6.25 ppm foliar spray): 0
- Phytotoxicity rating, tomato leaves ([7]; 25 ppm foliar spray): 0
- Phytotoxicity rating, tomato leaves ([7]; 100 ppm foliar spray): 3.5
- Phytotoxicity observation, tomato leaves (footnote b) ([7]; 400 and 100 ppm foliar spray): Evidence of chlorosis
- Phytotoxicity rating, tomato leaves ([7]; 400 ppm foliar spray): 4

SMILES: COCC(=O)N(c1c(C)cccc1C)C(C)C(=O)OC (centres unmarked) [Ridomil (tech.), reference compound]
- Percent Inhibition (Aphanomyces euteiches; 0.1 ppm): 7%
- Zone of Growth (Aphanomyces euteiches; 0.1 ppm): 27
- Percent Inhibition (Aphanomyces euteiches; 1.0 ppm): 3%
- Zone of Growth (Aphanomyces euteiches; 1.0 ppm): 28
- Percent Inhibition (Phytophthora infestans [3]; 0.1 ppm): 50%
- Zone of Growth (Phytophthora infestans [3]; 0.1 ppm): 6
- Percent Inhibition (Phytophthora infestans [3]; 1.0 ppm): 83%
- Zone of Growth (Phytophthora infestans [3]; 1.0 ppm): 2
- Percent Inhibition (Pythium aphanidermatum; 0.1 ppm, Table 7 experiment): 34%
- Zone of Growth (Pythium aphanidermatum; [12]): 21
- Percent Inhibition (Pythium aphanidermatum; 1.0 ppm, Table 7 experiment): 94%
- Zone of Growth (Pythium aphanidermatum; [13]): 2

SMILES: CO[C@@H](CC[C@H](C)[C@H]1O[C@@]23C[C@H](OC(=O)C[C@H]([C@@H](C)O)OC(=O)C[C@](O)(O2)[C@H](C)CC3(C)C)[C@@H]1C)c1cccc(O)c1 [debromoaplysiatoxin]
- Contact dermatitis [8]: causes a severe contact dermatitis
